Results from patent publication US10738084B2, “Macrocycles” (Sentry Therapeutics Limited, priority 2015, dated 2020).
pIC50: −log10 of the molar value.

Test system: IL-2 production by Jurkat cells
Assay: Inhibition of IL-2 production by Jurkat cells after PMA/PHA co-stimulation (ELISA)
Assay type: cell-based, human
Details: PMA and PHA co-stimulation; for IL-2% Inhibition: 24 hours
Experimental: Compounds of the invention were tested for their activity as inhibitors of T Cell stimulation by measuring the effect on IL-2 production by Jurkat cells following PMA (phorbol 12-myristate 13-acetate) and PHA (phytohemagglutinin) co-stimulation. All new compounds were tested at 0.1 uM, 1 uM and 10 uM. Cyclosporine A (control) was also tested at 0.1 uM, 1 uM and 10 uM. All compounds to be tested were dissolved in dimethyl sulfoxide. Cytotoxicity was evaluated with parallel Alamar Blue plates. Jurkat cells were seeded at 2×10^5 cells per well in 200 μL growth media in a clear, U-bottom 96-well plate. Cells were cultured in RPMI 1640 medium, 10% fetal bovine serum, and L-Glutamine with incubation at 37° C. with 5% carbon dioxide. After 1 hour of incubation the cells were stimulated with PMA (12.5 uL of a 1 ng/mL solution in 1% DMSO/media) and PHA (12.5 uL of a 5 ug/mL solution in PBS). After 24 hours the sample supernatants were harvested and stored at −80° C. A sample of the supernatant (25 uL) was diluted with RPMI (25 uL) and the concentration of human IL-2 was determined by ELISA (Pierce, EH2IL25).

Row | Structure (SMILES) | IL-2% Inhibition (1 uM) [%] | pIC50 | IL-2% Inhibition (10 uM) [%]
1 | CCC1CC(C)C([C@H]2C(=O)N[C@@H](CC)C(=O)N(C)CC(=O)N(C)[C@@H](CC(C)(C)O)C(=O)N[C@@H](C(C)C)C(=O)N(C)[C@@H](CC(C)C)C(=O)N[C@@H](C)C(=O)N[C@H](C)C(=O)N(C)[C@@H](CC(C)C)C(=O)N(C)[C@@H](CC(C)C)C(=O)N(C)[C@@H](C(C)C)C(=O)N2C)O1 (stereo partly drawn) [Example C, 1-[(2S)—N-Methyl-2-[tetrahydro-5-ethyl-3-methyl-2-furanyl]glycine]-4-(4-hydroxy-N-methyl-L-leucine)-cyclosporin A] | 16 |  | 
2 | C=CC1CC(C)C(C2C(=O)NC(CC)C(=O)N(C)C(SCCN(C)C)C(=O)N(C)C(CC(C)(C)O)C(=O)NC(C(C)C)C(=O)N(C)C(CC(C)C)C(=O)NC(C)C(=O)NC(C)C(=O)N(C)C(CC(C)C)C(=O)N(C)C(CC(C)C)C(=O)N(C)C(C(C)C)C(=O)N2C)O1 [Example G, 1-[(2S)—N-methyl-2-[tetrahydro-5-ethenyl-3-methyl-2-furanyl]glycine]-3-[2R-[[2-(dimethylamino)ethyl]thio]-N-methylglycine]-4-(4-hydroxy-N-methyl-L-leucine)-cyclosporin A] |  | < 5.00 | 
3 | CCC1CC(C)C([C@H]2C(=O)N[C@@H](CC)C(=O)N(C)CC(=O)N(C)[C@@H](CC(C)C)C(=O)N[C@@H](C(C)C)C(=O)N(C)[C@@H](CC(C)C)C(=O)N[C@@H](C)C(=O)N[C@H](C)C(=O)N(C)[C@@H](CC(C)C)C(=O)N(C)[C@@H](CC(C)C)C(=O)N(C)[C@@H](C(C)C)C(=O)N2C)O1 (stereo partly drawn) [Example A, 1-[(2S)—N-Methyl-2-[tetrahydro-5-ethyl-3-methyl-2-furanyl]glycine]-cyclosporin A] | 84 |  | 
4 | C=CC1CC(C)C(C2C(=O)NC(CC)C(=O)N(C)CC(=O)N(C)C(CC(C)(C)O)C(=O)NC(C(C)C)C(=O)N(C)C(CC(C)C)C(=O)NC(C)C(=O)NC(C)C(=O)N(C)C(CC(C)C)C(=O)N(C)C(CC(C)C)C(=O)N(C)C(C(C)C)C(=O)N2C)O1 [Example D, 1-[(2S)—N-methyl-2-[tetrahydro-5-ethenyl-3-methyl-2-furanyl]glycine]-4-(4-hydroxy-N-methyl-L-leucine)-cyclosporin A] | 8 |  | 
5 | CCC1CC(C)C([C@H]2C(=O)N[C@@H](CC)C(=O)N(C)[C@H](SCCN(C)C)C(=O)N(C)[C@@H](CC(C)(C)O)C(=O)N[C@@H](C(C)C)C(=O)N(C)[C@@H](CC(C)C)C(=O)N[C@@H](C)C(=O)N[C@H](C)C(=O)N(C)[C@@H](CC(C)C)C(=O)N(C)[C@@H](CC(C)C)C(=O)N(C)[C@@H](C(C)C)C(=O)N2C)O1 (stereo partly drawn) [Example F, 1-[(2S)—N-methyl-2-[tetrahydro-5-ethyl-3-methyl-2-furanyl]glycine]-3-[2R-[[2-(dimethylamino)ethyl]thio]-N-methylglycine]-4-(4-hydroxy-N-methyl-L-leucine)-cyclosporin A] | 2 |  | 5
